Four compounds from patent US20240400577A1, “MODULATORS OF PROTEIN KINASES” (VIBLIOME THERAPEUTICS, LLC, priority 2021, published 2024) can be followed below.

The structures appear in SMILES notation.

Experiment in all cases: Kinase panel enzymatic inhibition assay (Nanosyn)
Holding throughout (assay type): biochemical
Common to all, as to settings: compound 5 μM; ATP at Km; 30-minute pre-incubation

For one assay, the target named is T1, DDR2 (Homo sapiens, UniProt Q16832).
T1 construct: purchased Nanosyn (contract screening)
T1 sequence (Q16832 22-855): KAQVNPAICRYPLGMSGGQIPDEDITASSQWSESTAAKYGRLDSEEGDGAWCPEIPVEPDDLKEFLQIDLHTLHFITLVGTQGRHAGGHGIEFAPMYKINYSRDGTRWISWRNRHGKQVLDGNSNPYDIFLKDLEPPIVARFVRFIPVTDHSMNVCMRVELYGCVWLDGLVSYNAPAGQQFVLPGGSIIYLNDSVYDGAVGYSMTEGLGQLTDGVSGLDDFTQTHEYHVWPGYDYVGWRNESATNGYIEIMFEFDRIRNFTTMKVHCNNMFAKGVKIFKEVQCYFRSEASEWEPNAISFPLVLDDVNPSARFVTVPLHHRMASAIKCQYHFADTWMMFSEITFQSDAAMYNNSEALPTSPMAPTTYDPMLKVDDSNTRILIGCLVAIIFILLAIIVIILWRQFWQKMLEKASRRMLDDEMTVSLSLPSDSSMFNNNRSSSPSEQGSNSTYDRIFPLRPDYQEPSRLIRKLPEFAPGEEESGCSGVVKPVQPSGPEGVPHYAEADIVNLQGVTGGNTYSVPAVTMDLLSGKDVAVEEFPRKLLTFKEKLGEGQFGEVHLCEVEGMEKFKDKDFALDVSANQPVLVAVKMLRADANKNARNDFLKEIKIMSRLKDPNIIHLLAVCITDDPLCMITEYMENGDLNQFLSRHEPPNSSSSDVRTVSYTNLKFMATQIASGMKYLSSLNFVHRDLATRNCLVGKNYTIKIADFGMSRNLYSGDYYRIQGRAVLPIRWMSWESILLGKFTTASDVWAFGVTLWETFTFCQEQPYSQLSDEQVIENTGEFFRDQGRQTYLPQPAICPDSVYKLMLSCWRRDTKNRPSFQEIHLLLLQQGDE
An outline of the steps: (§1)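 Read-out is percent inhibition or IC50, obtained by mobility shift, ADP detection or time-resolved fluorescence detection. Each kinase was run with ATP at its Km, and compound at 5 μM was pre-incubated for 30 minutes.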

Another assay relates to EPH. The method in brief:
as §1

For a further assay, the target named is T2, LYNa (Homo sapiens, UniProt P07948).
T2 construct: purchased Nanosyn (contract screening)
T2 sequence (P07948 whole entry): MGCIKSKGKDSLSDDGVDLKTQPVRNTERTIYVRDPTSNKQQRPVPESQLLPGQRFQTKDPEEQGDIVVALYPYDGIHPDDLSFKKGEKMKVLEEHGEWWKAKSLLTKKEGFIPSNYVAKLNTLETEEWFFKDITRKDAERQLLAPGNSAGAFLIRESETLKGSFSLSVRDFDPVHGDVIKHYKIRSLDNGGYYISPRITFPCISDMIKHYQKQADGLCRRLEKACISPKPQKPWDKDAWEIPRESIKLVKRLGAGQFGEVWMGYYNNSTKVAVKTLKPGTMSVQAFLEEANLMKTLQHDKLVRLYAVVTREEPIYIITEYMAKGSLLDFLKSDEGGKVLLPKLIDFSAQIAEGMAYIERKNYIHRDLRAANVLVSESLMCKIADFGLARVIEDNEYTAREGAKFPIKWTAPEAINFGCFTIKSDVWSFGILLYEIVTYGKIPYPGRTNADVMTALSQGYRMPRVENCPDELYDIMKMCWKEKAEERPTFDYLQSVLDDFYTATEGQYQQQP
An outline of the steps: as §1

The target of the next assay is T3, CSK (Homo sapiens, UniProt P41240).
T3 construct: purchased Nanosyn (contract screening)
T3 sequence (P41240 whole entry): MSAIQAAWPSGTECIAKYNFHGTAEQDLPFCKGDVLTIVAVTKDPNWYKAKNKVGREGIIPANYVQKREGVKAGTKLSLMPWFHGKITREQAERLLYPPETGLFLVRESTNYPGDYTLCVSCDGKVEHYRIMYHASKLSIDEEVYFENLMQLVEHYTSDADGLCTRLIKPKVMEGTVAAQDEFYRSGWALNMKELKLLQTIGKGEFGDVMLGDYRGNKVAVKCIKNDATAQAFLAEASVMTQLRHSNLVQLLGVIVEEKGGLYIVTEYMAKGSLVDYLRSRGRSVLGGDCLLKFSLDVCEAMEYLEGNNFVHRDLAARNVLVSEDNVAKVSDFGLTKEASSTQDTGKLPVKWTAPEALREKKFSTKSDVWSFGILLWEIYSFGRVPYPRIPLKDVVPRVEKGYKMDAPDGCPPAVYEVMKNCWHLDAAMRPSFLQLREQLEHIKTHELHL
The method in brief: as §1

In another assay the target is T4, CRAF (Homo sapiens, UniProt P04049).
T4 construct: purchased Nanosyn (contract screening)
T4 sequence (P04049 whole entry): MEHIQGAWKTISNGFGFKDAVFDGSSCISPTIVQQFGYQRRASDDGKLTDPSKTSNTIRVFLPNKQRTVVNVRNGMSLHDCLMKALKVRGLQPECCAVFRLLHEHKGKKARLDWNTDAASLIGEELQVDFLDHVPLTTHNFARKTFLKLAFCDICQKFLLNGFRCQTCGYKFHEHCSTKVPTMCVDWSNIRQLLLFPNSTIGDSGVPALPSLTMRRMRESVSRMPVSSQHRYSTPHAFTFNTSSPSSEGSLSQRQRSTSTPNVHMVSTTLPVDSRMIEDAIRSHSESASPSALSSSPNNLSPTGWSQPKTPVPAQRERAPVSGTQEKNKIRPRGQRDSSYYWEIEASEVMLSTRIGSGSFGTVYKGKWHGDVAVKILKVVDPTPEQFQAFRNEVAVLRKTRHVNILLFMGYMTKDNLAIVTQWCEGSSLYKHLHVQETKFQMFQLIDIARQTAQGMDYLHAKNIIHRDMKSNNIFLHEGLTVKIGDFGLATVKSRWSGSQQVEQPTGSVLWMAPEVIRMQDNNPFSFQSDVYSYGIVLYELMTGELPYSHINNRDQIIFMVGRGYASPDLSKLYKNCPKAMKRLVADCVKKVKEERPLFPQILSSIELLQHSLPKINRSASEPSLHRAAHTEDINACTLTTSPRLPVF
An outline of the steps:
as §1

The next assay deals with T5, HGK (Homo sapiens, UniProt O95819).
T5 construct: purchased Nanosyn (contract screening)
T5 sequence (O95819 whole entry): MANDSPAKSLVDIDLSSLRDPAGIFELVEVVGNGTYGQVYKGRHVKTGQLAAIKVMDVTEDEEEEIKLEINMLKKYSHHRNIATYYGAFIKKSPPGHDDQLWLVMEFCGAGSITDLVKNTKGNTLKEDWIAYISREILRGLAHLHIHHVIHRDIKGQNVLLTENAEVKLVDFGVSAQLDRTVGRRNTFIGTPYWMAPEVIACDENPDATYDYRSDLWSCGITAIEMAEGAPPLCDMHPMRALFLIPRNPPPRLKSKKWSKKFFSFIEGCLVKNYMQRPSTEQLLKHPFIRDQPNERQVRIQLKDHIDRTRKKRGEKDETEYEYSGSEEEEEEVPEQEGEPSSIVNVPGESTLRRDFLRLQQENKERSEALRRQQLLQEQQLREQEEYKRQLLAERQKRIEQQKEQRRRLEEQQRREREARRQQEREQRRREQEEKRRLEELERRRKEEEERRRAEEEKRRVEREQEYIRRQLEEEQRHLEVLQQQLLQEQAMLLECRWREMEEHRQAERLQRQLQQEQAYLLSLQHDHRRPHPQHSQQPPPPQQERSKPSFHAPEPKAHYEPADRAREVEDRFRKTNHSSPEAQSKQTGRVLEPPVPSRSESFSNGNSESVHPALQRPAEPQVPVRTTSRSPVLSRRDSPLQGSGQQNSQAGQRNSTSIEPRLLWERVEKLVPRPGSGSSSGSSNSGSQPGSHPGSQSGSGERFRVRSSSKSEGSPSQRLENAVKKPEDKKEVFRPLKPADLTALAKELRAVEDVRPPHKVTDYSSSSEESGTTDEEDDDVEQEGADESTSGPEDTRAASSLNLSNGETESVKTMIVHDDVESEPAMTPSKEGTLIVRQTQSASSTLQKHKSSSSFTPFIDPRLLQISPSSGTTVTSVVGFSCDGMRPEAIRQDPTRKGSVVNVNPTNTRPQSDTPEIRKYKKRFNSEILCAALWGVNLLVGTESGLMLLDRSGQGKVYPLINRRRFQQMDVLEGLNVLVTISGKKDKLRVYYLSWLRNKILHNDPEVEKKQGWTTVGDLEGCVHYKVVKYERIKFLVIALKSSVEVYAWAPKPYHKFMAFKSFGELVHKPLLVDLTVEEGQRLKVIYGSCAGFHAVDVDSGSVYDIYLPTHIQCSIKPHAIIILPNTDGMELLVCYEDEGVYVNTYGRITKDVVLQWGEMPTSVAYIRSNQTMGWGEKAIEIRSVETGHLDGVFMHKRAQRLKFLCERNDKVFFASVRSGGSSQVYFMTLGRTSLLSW
An outline of the steps: as §1

The next assay deals with T6, COT1 (Homo sapiens, UniProt P41279).
T6 construct: purchased Nanosyn (contract screening)
An outline of the steps:
as §1

The target of another assay is T7, MAP4K2 (Homo sapiens, UniProt Q12851).
T7 construct: purchased Nanosyn (contract screening)
T7 sequence (Q12851 1-820): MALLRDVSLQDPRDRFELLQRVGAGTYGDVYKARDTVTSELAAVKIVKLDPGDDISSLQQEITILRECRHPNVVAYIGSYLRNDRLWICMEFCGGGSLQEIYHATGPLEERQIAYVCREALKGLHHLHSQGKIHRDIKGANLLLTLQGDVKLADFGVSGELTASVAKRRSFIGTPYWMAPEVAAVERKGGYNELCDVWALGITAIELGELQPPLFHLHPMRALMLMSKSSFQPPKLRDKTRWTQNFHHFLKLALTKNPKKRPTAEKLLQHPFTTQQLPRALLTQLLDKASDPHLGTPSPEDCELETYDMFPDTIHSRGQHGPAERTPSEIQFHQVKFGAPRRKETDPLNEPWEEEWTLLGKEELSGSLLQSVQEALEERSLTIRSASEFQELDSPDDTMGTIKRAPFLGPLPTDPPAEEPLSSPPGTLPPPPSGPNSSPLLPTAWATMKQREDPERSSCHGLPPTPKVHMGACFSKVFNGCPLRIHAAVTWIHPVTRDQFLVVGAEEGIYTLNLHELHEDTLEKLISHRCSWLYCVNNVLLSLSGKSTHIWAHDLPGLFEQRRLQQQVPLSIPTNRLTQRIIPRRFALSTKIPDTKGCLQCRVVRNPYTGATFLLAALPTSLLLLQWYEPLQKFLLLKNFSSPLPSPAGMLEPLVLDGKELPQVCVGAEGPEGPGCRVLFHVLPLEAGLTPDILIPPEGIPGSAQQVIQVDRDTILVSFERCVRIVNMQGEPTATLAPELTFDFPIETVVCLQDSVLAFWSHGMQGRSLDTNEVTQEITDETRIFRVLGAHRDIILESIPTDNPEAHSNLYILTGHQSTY
The method in brief: as §1

In a further assay the target is T8, FYN (Homo sapiens, UniProt P06241).
T8 construct: purchased Nanosyn (contract screening)
The method in brief: as §1

The next assay has as its target T9, PDGFRa (Homo sapiens, UniProt P16234).
T9 construct: Nanosyn (contract laboratory that ran the panel)
An outline of the steps: as §1

A further assay addresses T10, HCK (Homo sapiens, UniProt P08631).
T10 construct: purchased Nanosyn (contract screening)
An outline of the steps: as §1

For a further assay, the target named is T11, ERBB4 (Homo sapiens, UniProt Q15303).
T11 construct: purchased Nanosyn (contract screening)
An outline of the steps:
as §1

The target in a further assay is T12, Abl2 (Homo sapiens, UniProt P42684).
T12 construct: purchased Nanosyn (contract screening)
T12 sequence (P42684 whole entry): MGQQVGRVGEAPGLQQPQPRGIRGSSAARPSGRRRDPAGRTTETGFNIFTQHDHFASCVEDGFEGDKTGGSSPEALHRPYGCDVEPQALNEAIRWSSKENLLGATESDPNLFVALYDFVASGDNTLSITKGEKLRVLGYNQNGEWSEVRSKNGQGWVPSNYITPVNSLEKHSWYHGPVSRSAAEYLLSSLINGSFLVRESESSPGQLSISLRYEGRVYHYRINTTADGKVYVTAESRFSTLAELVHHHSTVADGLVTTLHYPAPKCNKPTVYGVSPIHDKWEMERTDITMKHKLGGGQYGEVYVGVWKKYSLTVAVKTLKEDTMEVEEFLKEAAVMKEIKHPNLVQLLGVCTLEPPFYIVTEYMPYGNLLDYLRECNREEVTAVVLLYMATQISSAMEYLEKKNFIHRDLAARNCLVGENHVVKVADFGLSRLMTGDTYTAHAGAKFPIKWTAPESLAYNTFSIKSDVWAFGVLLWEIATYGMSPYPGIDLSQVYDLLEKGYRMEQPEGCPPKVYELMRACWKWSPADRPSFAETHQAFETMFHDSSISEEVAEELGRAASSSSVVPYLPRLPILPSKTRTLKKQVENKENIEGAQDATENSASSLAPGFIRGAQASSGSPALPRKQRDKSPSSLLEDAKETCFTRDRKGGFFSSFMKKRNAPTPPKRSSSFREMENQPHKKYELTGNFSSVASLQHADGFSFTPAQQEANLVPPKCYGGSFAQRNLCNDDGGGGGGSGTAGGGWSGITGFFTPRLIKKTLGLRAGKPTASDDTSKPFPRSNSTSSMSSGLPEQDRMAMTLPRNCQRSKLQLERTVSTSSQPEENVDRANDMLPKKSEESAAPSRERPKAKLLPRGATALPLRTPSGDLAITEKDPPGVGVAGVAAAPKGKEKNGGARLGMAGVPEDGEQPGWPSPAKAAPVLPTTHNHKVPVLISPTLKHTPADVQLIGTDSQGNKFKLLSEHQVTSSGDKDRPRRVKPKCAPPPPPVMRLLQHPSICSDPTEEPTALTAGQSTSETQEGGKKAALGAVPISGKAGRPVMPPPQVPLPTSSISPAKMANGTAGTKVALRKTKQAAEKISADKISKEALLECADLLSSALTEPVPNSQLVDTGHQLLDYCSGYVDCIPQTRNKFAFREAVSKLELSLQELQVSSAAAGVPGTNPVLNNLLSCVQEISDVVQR
An outline of the steps:
as §1

For the next assay, the target named is T13, BLK (Homo sapiens, UniProt P51451).
T13 construct: purchased Nanosyn (contract screening)
T13 sequence (P51451 whole entry): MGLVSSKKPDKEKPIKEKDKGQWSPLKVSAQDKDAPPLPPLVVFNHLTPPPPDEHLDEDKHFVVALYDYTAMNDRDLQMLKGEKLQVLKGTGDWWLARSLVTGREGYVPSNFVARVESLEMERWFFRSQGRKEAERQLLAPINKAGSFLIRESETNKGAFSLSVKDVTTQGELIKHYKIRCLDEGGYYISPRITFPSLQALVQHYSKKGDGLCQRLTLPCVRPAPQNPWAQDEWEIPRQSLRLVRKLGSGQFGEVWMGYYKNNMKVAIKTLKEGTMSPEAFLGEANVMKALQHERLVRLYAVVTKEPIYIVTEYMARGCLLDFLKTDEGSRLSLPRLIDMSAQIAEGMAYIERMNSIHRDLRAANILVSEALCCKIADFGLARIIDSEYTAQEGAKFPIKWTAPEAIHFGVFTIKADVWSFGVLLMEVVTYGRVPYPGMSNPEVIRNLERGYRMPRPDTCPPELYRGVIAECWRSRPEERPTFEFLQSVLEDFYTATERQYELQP
The method in brief: as §1

T10 sequence (P08631 whole entry): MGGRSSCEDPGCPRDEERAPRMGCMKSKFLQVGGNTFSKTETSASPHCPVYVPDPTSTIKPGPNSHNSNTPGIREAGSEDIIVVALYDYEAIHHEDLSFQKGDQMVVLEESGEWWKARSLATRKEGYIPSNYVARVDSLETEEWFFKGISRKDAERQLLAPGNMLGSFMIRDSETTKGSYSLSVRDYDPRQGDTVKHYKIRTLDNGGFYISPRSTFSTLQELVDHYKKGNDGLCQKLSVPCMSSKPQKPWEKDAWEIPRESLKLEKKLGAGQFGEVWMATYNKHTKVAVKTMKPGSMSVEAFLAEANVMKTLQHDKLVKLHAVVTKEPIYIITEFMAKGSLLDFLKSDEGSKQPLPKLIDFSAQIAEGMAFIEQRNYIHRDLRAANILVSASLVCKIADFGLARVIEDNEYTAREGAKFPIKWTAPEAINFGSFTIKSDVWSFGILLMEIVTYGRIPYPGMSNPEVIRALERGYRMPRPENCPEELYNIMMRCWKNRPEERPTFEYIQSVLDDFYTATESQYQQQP

As for `Cc1ccc(NC(=O)c2cc(S(C)(=O)=O)n(-c3ccc(F)cc3)n2)cc1Nc1ccc2ncn(C)c(=O)c2c1` [Ex4, 1-(4-fluorophenyl)-N-(4-methyl-3-((3-methyl-4-oxo-3,4-dihydroquinazolin-6-yl)amino)phenyl)-5-(methylsulfonyl)-1H-pyrazole-3-carboxamide], the inhibition at 5 µM was at least 95% at DDR2; under 79% at LYNa; under 79% against CSK; at least 95% at CRAF; under 79% on HGK; under 79% at COT1. The inhibition at 5 µM at MAP4K2, on FYN, against PDGFRa, against HCK, on ERBB4 and against Abl2 was under 79% in each case. The inhibition at 5 µM on BLK was under 79%. Besides, in the assay on EPH, the “kinase inhibition, EPH” value was “D (D=79% and less)”.
Regarding `Cc1ccc(NC(=O)c2cc([S+](C)[O-])n(-c3ccc(F)cc3)n2)cc1Nc1ccc2ncn(C)c(=O)c2c1` (centres unmarked) [Ex5, 1-(4-fluorophenyl)-N-(4-methyl-3-((3-methyl-4-oxo-3,4-dihydroquinazolin-6-yl)amino)phenyl)-5-(methylsulfinyl)-1H-pyrazole-3-carboxamide], the inhibition at 5 µM against DDR2 is under 79%; at LYNa, at least 95%; at CSK, under 79%; against CRAF, at least 95%; against HGK it was under 79%; against COT1, under 79%. Besides, the inhibition at 5 µM against MAP4K2, against FYN, against PDGFRa, at HCK, on ERBB4 and against Abl2 was under 79% in each case. The inhibition at 5 µM on BLK is under 79%. Also, in the assay on EPH, the “kinase inhibition, EPH” value was “D (D=79% and less)”.
Regarding `Cc1ccc(NC(=O)c2cc([S+](C)[O-])n(-c3ccc(F)cc3)n2)cc1C#Cc1cnc2cccnn12` (centres unmarked) [Ex6, 1-(4-fluorophenyl)-N-(3-(imidazo[1,2-b]pyridazin-3-ylethynyl)-4-methylphenyl)-5-(methylsulfinyl)-1H-pyrazole-3-carboxamide], the inhibition at 5 µM against DDR2 was under 79%; against LYNa, 90 to 94%; on CSK, 80 to 89%; on CRAF it was at least 95%; at HGK, under 79%; against COT1, under 79%. Also, the inhibition at 5 µM against MAP4K2 was under 79%; against FYN, at least 95%; against PDGFRa, at least 95%; against HCK, at least 95%; against ERBB4, under 79%; on Abl2, at least 95%. The compound further yielded an inhibition at 5 µM against BLK of 80 to 89%. For the same compound, the “kinase inhibition, EPH” value in the assay with EPH was “D (D=79% and less)”.
For the compound `CNC(=O)c1cc(Oc2ccc(F)c(NC(=O)c3cc([S+](C)[O-])n(-c4ccc(F)cc4)n3)c2)ccn1` (centres unmarked) [Ex7, 4-(4-fluoro-3-(1-(4-fluorophenyl)-5-(methylsulfinyl)-1H-pyrazole-3-carboxamido)phenoxy)-N-methylpicolinamide], the inhibition at 5 µM at DDR2 was under 79%; at LYNa, under 79%; on CSK, under 79%; against CRAF it was at least 95%; at HGK, under 79%; at COT1, under 79%. For the same compound, the inhibition at 5 µM at MAP4K2, against FYN, against PDGFRa, against HCK, against ERBB4 and on Abl2 was under 79% each time. Further, the inhibition at 5 µM against BLK was under 79%. Also, in the assay on EPH, the “kinase inhibition, EPH” value was “D (D=79% and less)”.

In general, inhibition refers to how much of the control response was suppressed.
